Experiment [1] has as its target T1, recombinant human calcitonin receptor (hCT-R) (Homo sapiens, UniProt P30988).
T1 construct: host or cells: human astrocytoma cell line 1321N1
T1 sequence (P30988 25-474): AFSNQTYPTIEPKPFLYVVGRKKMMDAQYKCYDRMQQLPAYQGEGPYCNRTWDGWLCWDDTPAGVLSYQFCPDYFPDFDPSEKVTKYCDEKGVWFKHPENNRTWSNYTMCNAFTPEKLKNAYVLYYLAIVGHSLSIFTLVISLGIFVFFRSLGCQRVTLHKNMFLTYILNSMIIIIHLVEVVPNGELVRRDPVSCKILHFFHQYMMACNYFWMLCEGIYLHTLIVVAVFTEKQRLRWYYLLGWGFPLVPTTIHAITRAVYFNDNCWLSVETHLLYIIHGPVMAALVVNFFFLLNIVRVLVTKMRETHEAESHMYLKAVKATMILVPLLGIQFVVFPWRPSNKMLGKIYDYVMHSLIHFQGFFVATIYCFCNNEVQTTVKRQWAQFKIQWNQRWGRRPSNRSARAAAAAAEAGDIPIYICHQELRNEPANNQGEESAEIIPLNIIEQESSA
Kind of experiment: hCT-R cAMP assay (AlphaScreen) in 1321N1 cells. The settings on record: cAMP formation, 45 min stimulation. Type of experiment: cell-based. The source says: (§1) For the assessment of the in vitro activity of test peptides, cell lines expressing recombinant human calcitonin receptor (hCT-R) or recombinant human amylin 3 receptor (hAMYR3) in the background of the human astrocytoma cell line 1321N1 were purchased from DiscoveRx Corporation (Cat. No. 95-016106 and 95-0166C6). The hAMYR3 is a hetero-oligomer of the calcitonin receptor (Isoform 2; Gene ID 799) and RAMPS (Gene ID 10268) that forms when both genes are expressed in the same cell. The hCT-R cell line expresses only the recombinant human calcitonin receptor gene (Isoform 2; Gene ID 799). Upon activation of hCT-R or hAMYR3 by the test peptides the formation of cAMP is induced and was measured using the AlphaScreen® cAMP Assay kit from Perkin-Elmer (Cat. No. 6760635R).
(§2) Briefly, 1321N1 cells expressing hCT-R or hAMYR3 were seeded in 384-well microtiter plates (Falcon Optilux White, Cat.-No. 10448642) at 5,000 cells in […] growth medium per well (AssayComplete 1321N1 Cell Culture Kit, DiscoveRx Corp.), and incubated for 24 h at 37° C., 5% CO2. On the day of analysis growth medium was removed and the cells were stimulated by adding 10 μL of stimulation buffer (10 […], 0.1% BSA) containing increasing concentrations of test peptides, and incubation for 45 min at room temperature. The stimulation was stopped by adding 5.6 μL/well donor bead detection mix (5 mM Hepes pH7.4, 0.5% TWEEN 20, 0.1% BSA, 0.05 mg/mL donor beads, 62.5 nM biotinylated cAMP) and 4.5 μL/well acceptor bead solution (5 mM Hepes pH7.4, 0.5% TWEEN 20, 0.1% BSA, 0.05 mg/mL acceptor beads). After thorough mixing the plates were incubated in the dark for 1 h at room temperature and the cAMP content of the resulting cell lysates was estimated according to the AlphaScreen® cAMP Assay manufacturer's instructions. EC50 values were estimated by computer-aided curve fitting of results of at least 7 different compound concentrations.

Experiment [2] addresses T2, recombinant human amylin 3 receptor (hAMYR3) (Homo sapiens, UniProt O60896+P30988).
T2 construct: host or cells: human astrocytoma cell line 1321N1
T2 sequence (P30988 25-474): T1 sequence (P30988 25-474)
T2 sequence (O60896 24-148 partner): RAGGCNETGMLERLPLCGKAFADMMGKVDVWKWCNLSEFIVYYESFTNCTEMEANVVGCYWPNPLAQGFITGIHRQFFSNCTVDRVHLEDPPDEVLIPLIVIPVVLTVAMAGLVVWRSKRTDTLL
As to the kind of experiment: hAMYR3 cAMP assay (AlphaScreen) in 1321N1 cells. The settings on record: cAMP formation, 45 min stimulation. It is filed as cell-based.
Text: as §1, §2
(cAMP levels reflect the balance of adenylyl cyclase and phosphodiesterase activity.)

Numbered stars: 1 amine (or outer) side, 2 acyl side, 3 side chain; on linkers, the order of the positions; unused ones are H or OH. Bridge positions count the residues as written; N and C are the ends. Square brackets hold non-standard residues; d marks the D form. Peptide text beside a SMILES is read from it. * marks the point of attachment. C20 diacid = O=C(O)CCCCCCCCCCCCCCCCCCC(=O)*; γGlu = O=C(O)[C@H](CCC(=O)[*:2])N[*:1]; Hyp = O=C(O)[C@@H]1C[C@@H](O)CN1; NMeI = CC[C@H](C)[C@H](NC)C(=O)O; Aad = N[C@@H](CCCC(=O)O)C(=O)O; Orn = NCCC[C@H](N)C(=O)O; Dab = NCC[C@H](N)C(=O)O; Sar = CNCC(=O)O

For `CC[C@H](C)[C@@H](C(=O)N[C@@H](CC(C)C)C(=O)N[C@@H](CO)C(=O)N[C@@H](CO)C(=O)N[C@H](C(=O)N[C@@H](CCC(=O)O)C(=O)N[C@H](C(=O)NCC(=O)N[C@@H](CO)C(=O)N[C@@H](CC(N)=O)C(=O)N[C@H](C(=O)N1C[C@H](O)C[C@H]1C(N)=O)[C@@H](C)O)C(C)C)[C@@H](C)O)N(C)C(=O)[C@H](C)NC(=O)CN(C)C(=O)[C@H](Cc1ccccc1)NC(=O)[C@H](CCCNC(=N)N)NC(=O)[C@H](CCC(N)=O)NC(=O)[C@H](CC(C)C)NC(=O)[C@H](Cc1ccccc1)NC(=O)[C@H](Cc1c[nH]cn1)NC(=O)[C@H](C)NC(=O)[C@H](CC(C)C)NC(=O)[C@H](CCCNC(=N)N)NC(=O)[C@H](CCC(=O)O)NC(=O)[C@@H](NC(=O)[C@H](C)NC(=O)[C@@H]1CCCNC(=O)C[C@H](NC(=O)[C@H](CCCNC(=N)N)NC(=O)CC[C@H](NC(=O)CCCCCCCCCCCCCCCCCCC(=O)O)C(=O)O)C(=O)NCC(=O)N[C@@H]([C@@H](C)O)C(=O)N[C@@H](C)C(=O)N[C@@H]([C@@H](C)O)C(=O)N1)[C@@H](C)O` [Compound 6, [19CD]-isoGlu-RD()GTAT-Orn()-ATERLAHFLQRF-Gly(Me)-A-Ile(Me)-LSSTEVGSNT-Hyp-NH2] ({C20 diacid-γGlu}-RDGTAT[Orn]ATERLAHFLQRF[Sar]A[NMeI]LSSTEVGSNT[Hyp]-NH2; lactam 2-7), the EC50 (as a rule, the midpoint of the concentration-response curve) in experiment [1] is 0.327 nM; in experiment [2] it was 0.011 nM.
In the same order, the values of `CC[C@H](C)[C@@H](C(=O)N[C@@H](CC(C)C)C(=O)N[C@@H](CO)C(=O)N[C@@H](CO)C(=O)N[C@H](C(=O)N[C@@H](CCC(=O)O)C(=O)N[C@H](C(=O)NCC(=O)N[C@@H](CO)C(=O)N[C@@H](CC(N)=O)C(=O)N[C@H](C(=O)N1C[C@H](O)C[C@H]1C(N)=O)[C@@H](C)O)C(C)C)[C@@H](C)O)N(C)C(=O)[C@H](C)NC(=O)CN(C)C(=O)[C@H](Cc1ccccc1)NC(=O)[C@H](CO)NC(=O)[C@H](CO)NC(=O)[C@H](CCCNC(=N)N)NC(=O)[C@H](CCC(N)=O)NC(=O)[C@H](CC(C)C)NC(=O)[C@H](Cc1ccccc1)NC(=O)[C@H](Cc1c[nH]cn1)NC(=O)[C@H](C)NC(=O)[C@H](CC(C)C)NC(=O)[C@H](CCCNC(=N)N)NC(=O)[C@H](CCC(=O)O)NC(=O)[C@@H](NC(=O)[C@H](C)NC(=O)[C@@H]1CCCCNC(=O)C[C@H](NC(=O)[C@H](CCCNC(=N)N)NC(=O)CC[C@H](NC(=O)CCCCCCCCCCCCCCCCCCC(=O)O)C(=O)O)C(=O)NCC(=O)N[C@@H](CCC(=O)O)C(=O)N[C@@H](C)C(=O)N[C@@H]([C@@H](C)O)C(=O)N1)[C@@H](C)O` [Compound 12, [19CD]-isoGlu-RD()GEATK()ATERLAHFLQRSSF-Gly(Me)-A-Ile(Me)-LSSTEVGSNT-Hyp-NH2] ({C20 diacid-γGlu}-RDGEATKATERLAHFLQRSSF[Sar]A[NMeI]LSSTEVGSNT[Hyp]-NH2; lactam 2-7) are 0.893 nM and 0.999 nM.
The corresponding values for `CC[C@H](C)[C@@H](C(=O)N[C@@H](CC(C)C)C(=O)N[C@@H](CO)C(=O)N[C@@H](CO)C(=O)N[C@H](C(=O)N[C@@H](CCC(=O)O)C(=O)N[C@H](C(=O)NCC(=O)N[C@@H](CO)C(=O)N[C@@H](CC(N)=O)C(=O)N[C@H](C(=O)N1C[C@H](O)C[C@H]1C(N)=O)[C@@H](C)O)C(C)C)[C@@H](C)O)N(C)C(=O)[C@H](C)NC(=O)CN(C)C(=O)[C@H](Cc1ccccc1)NC(=O)[C@H](CO)NC(=O)[C@H](CO)NC(=O)[C@H](CCCNC(=N)N)NC(=O)[C@H](CCC(N)=O)NC(=O)[C@H](CC(C)C)NC(=O)[C@H](Cc1ccccc1)NC(=O)[C@H](Cc1c[nH]cn1)NC(=O)[C@H](C)NC(=O)[C@H](CC(C)C)NC(=O)[C@H](CCCNC(=N)N)NC(=O)[C@H](CCC(=O)O)NC(=O)[C@@H](NC(=O)[C@H](C)NC(=O)[C@@H]1CCNC(=O)C[C@H](NC(=O)[C@H](CCCNC(=N)N)NC(=O)CC[C@H](NC(=O)CCCCCCCCCCCCCCCCCCC(=O)O)C(=O)O)C(=O)NCC(=O)N[C@@H]([C@@H](C)O)C(=O)N[C@@H](C)C(=O)N[C@@H]([C@@H](C)O)C(=O)N1)[C@@H](C)O` [Compound 2, [19CD]-isoGlu-RD()GTAT-Dab()-ATERLAHFLQRSSF-Gly(Me)-A-Ile(Me)-LSSTEVGSNT-Hyp-NH2] ({C20 diacid-γGlu}-RDGTAT[Dab]ATERLAHFLQRSSF[Sar]A[NMeI]LSSTEVGSNT[Hyp]-NH2; lactam 2-7) are 0.105 nM and 0.032 nM.
The corresponding values for `CC[C@H](C)[C@@H](C(=O)N[C@@H](CC(C)C)C(=O)N[C@@H](CO)C(=O)N[C@@H](CO)C(=O)N[C@H](C(=O)N[C@@H](CCC(=O)O)C(=O)N[C@H](C(=O)NCC(=O)N[C@@H](CO)C(=O)N[C@@H](CO)C(=O)N[C@H](C(=O)N1C[C@H](O)C[C@H]1C(N)=O)[C@@H](C)O)C(C)C)[C@@H](C)O)N(C)C(=O)[C@H](C)NC(=O)CN(C)C(=O)[C@H](Cc1ccccc1)NC(=O)[C@H](CO)NC(=O)[C@H](CO)NC(=O)[C@H](CCCNC(=N)N)NC(=O)[C@@H](NC(=O)[C@H](CC(C)C)NC(=O)[C@H](Cc1ccccc1)NC(=O)[C@H](CCCC(=O)O)NC(=O)[C@H](C)NC(=O)[C@H](CC(C)C)NC(=O)[C@H](CCCNC(=N)N)NC(=O)[C@H](CCC(=O)O)NC(=O)[C@@H](NC(=O)[C@H](C)NC(=O)[C@@H]1CCCNC(=O)C[C@H](NC(=O)[C@H](CCCNC(=N)N)NC(=O)CC[C@H](NC(=O)CCCCCCCCCCCCCCCCCCC(=O)O)C(=O)O)C(=O)NCC(=O)N[C@@H]([C@@H](C)O)C(=O)N[C@@H](C)C(=O)N[C@@H]([C@@H](C)O)C(=O)N1)[C@@H](C)O)[C@@H](C)O` [Compound 22, [19CD]-isoGlu-RD()GTAT-Orn()-ATERLA-Aad-FLTRSSF-Gly(Me)-A-Ile(Me)-LSSTEVGSST-Hyp-NH2] ({C20 diacid-γGlu}-RDGTAT[Orn]ATERLA[Aad]FLTRSSF[Sar]A[NMeI]LSSTEVGSST[Hyp]-NH2; lactam 2-7) are 0.474 nM and 0.051 nM.
For the molecule `CC[C@H](C)[C@@H](C(=O)N[C@@H](CC(C)C)C(=O)N[C@@H](CO)C(=O)N[C@@H](CO)C(=O)N[C@H](C(=O)N[C@@H](CCC(=O)O)C(=O)N[C@H](C(=O)NCC(=O)N[C@@H](CO)C(=O)N[C@@H](CC(N)=O)C(=O)N[C@H](C(=O)N1C[C@H](O)C[C@H]1C(N)=O)[C@@H](C)O)C(C)C)[C@@H](C)O)N(C)C(=O)[C@H](C)NC(=O)CN(C)C(=O)[C@H](Cc1ccccc1)NC(=O)[C@H](CO)NC(=O)[C@H](CO)NC(=O)[C@H](CCCNC(=N)N)NC(=O)[C@H](CCC(N)=O)NC(=O)[C@H](CC(C)C)NC(=O)[C@H](Cc1ccccc1)NC(=O)[C@H](Cc1c[nH]cn1)NC(=O)[C@H](C)NC(=O)[C@H](CC(C)C)NC(=O)[C@H](CCCNC(=N)N)NC(=O)[C@H](CCC(=O)O)NC(=O)[C@@H](NC(=O)[C@H](C)NC(=O)[C@@H]1CC(=O)NCC[C@H](NC(=O)[C@H](CCCNC(=N)N)NC(=O)CC[C@H](NC(=O)CCCCCCCCCCCCCCCCCCC(=O)O)C(=O)O)C(=O)NCC(=O)N[C@@H]([C@@H](C)O)C(=O)N[C@@H](C)C(=O)N[C@@H]([C@@H](C)O)C(=O)N1)[C@@H](C)O` [Compound 46, [19CD]-isoGlu-R-Dab()-GTATD()ATERLAHFLQRSSF-Gly(Me)-A-Ile(Me)-LSSTEVGSNT-Hyp-NH2] ({C20 diacid-γGlu}-R[Dab]GTATDATERLAHFLQRSSF[Sar]A[NMeI]LSSTEVGSNT[Hyp]-NH2; lactam 2-7), the values for the EC50 in experiment [1] and in experiment [2] were 7.5 nM and 5.5 nM, respectively.

These data come from patent publication US11382956B2, “Amylin analogues” (Zealand Pharma A/S, priority 2016, dated 2022).
